According to US8883963B2 (Cadila Healthcare Limited, priority 2007, dated 2014):
Non-standard residues stand in square brackets, D forms with d. Residues, ends and D or L forms follow the SMILES beside them. ξ: configuration not given here. ξBip(2'-Et-4'-OMe) = CCc1cc(OC)ccc1-c1ccc(CC(N)C(=O)O)cc1; ξNva(5-(3,5-Me2-Ph)) = Cc1cc(C)cc(CCCC(N)C(=O)O)c1; Aib = CC(C)(N)C(=O)O

Tests used:
[1] = tested on: C57BL/6J mice (mild hyperglycemic); assay: In vivo glucose reduction, acute single dose 120-min time-course, i.p. route; design: species or system mouse; unit not given here; settings: male C57BL/6J mice
[2] = tested on: C57BL/6J mice (mild hyperglycemic); assay: In vivo glucose reduction, acute single dose 120-min time-course, oral route; design: species or system mouse; unit not given here; settings: male C57BL/6J mice, 2 μM/kg oral
Experimental: Acute single dose 120-min time-course experiments were carried out in male C57BL/6J or db/db mice, age 8-12 weeks, bred in-house. Animals were housed in groups of 6 animals per cage, for a week, in order to habituate them to vivarium conditions (25±4° C., 60-65% relative humidity, 12:12 h light:dark cycle, with lights on at 7.30 am). All the animal experiments were carried out according to the internationally valid guidelines following approval by the ‘Zydus Research Center animal ethical committee’.
Two days prior to the study, the animals were randomised and divided into 5 groups (n=6), based upon their fed glucose levels. On the day of experiment, food was withdrawn from all the cages, water was given ad-libitum and were kept for overnight fasting. Vehicle (normal saline)/test/standard compounds were administered intraperitoneally (i.p.) or orally, on a body weight basis. Soon after the 0 min. blood collection from each animal, the subsequent blood collections were done at 30, 60 and 120 or up to 240 min., via retro-orbital route, under light ether anesthesia (Chen, D., et al., Diabetes Obesity Metabolism, 2005, 7, 307. Kim, J. G. et al., Diabetes, 2003, 52, 751).
Blood samples were centrifuged and the separated serum was immediately subjected for the glucose estimation. Serum for insulin estimation was stored at −70° C. until used for the insulin estimation. The glucose estimation was carried out with DPEC-GOD/POD method (Ranbaxy Fine Chemicals Limited, Diagnostic division, India), using Spectramax-190, in 96-microwell plate reader (Molecular devices Corporation, Sunnyvale, Calif.). […] The AUC and BCAUC obtained from graphs were analyzed for one way ANOVA, followed by Dunnett's post test, using Graph Pad prism software. Furthermore, the insulin estimation was carried out using rat/mouse insulin ELISA kit (Linco research, Missouri USA). Changes in the blood glucose levels, at 0, 30, 60 and 120 min, with selected peptidomimetics are shown in Table 7 (via ip route of administration) and Table 8 (via oral route of administration) respectively.

SMILES	blood glucose levels ([1]; 50 nM/kg i.p., 0 min)	blood glucose levels ([1]; 50 nM/kg i.p., 30 min)	blood glucose levels ([1]; 50 nM/kg i.p., 60 min)	blood glucose levels ([1]; 50 nM/kg i.p., 120 min)	blood glucose levels ([2]; 0 min)	blood glucose levels ([2]; 30 min)	blood glucose levels ([2]; 60 min)	blood glucose levels ([2]; 120 min)	blood glucose levels ([1]; 20 nM/kg i.p., 0 min)	blood glucose levels ([1]; 20 nM/kg i.p., 30 min)	blood glucose levels ([1]; 20 nM/kg i.p., 60 min)	blood glucose levels ([1]; 20 nM/kg i.p., 120 min)	blood glucose levels ([1]; 30 nM/kg i.p., 0 min)	blood glucose levels ([1]; 30 nM/kg i.p., 30 min)	blood glucose levels ([1]; 30 nM/kg i.p., 60 min)	blood glucose levels ([1]; 30 nM/kg i.p., 120 min)	blood glucose levels ([1]; 10 nM/kg i.p., 0 min)	blood glucose levels ([1]; 10 nM/kg i.p., 30 min)	blood glucose levels ([1]; 10 nM/kg i.p., 60 min)	blood glucose levels ([1]; 10 nM/kg i.p., 120 min)
CCc1cc(OC)ccc1-c1ccc(CC(CNC(CCCc2ccccc2)C(N)=O)NC[C@H](CC(=O)O)NC(=O)[C@H](CO)NC(=O)[C@@H](NC(=O)C(C)(Cc2ccccc2F)NC(=O)[C@@H](NC(=O)CNC(=O)C(CCC#N)NC(=O)C(C)(C)NC(=O)[C@@H](N)Cc2c[nH]cn2)[C@H](C)O)[C@H](C)O)cc1 (single isomer, unassigned) [Seq. ID. 202]	183 ± 5.1	122 ± 3.1	130 ± 2.3	148 ± 2.2	184 ± 2.5	115 ± 3.6	113 ± 4.2	110 ± 2.4												
CCc1cc(OC)ccc1-c1ccc(CC(NC(=S)[C@H](CC(=O)O)NC(=O)[C@H](CO)NC(=O)[C@@H](NC(=O)C(C)(Cc2ccccc2F)NC(=O)[C@@H](NC(=O)CNC(=O)C(CCC#N)NC(=O)C(C)(C)NC(=O)[C@@H](N)Cc2c[nH]cn2)[C@H](C)O)[C@H](C)O)C(=S)NC(CCCc2ccccc2F)C(N)=O)cc1 (single isomer, unassigned) [Seq. ID. 180]					184 ± 2.2	118 ± 3.3	112 ± 4.4	110 ± 2.9	180 ± 3.1	122 ± 3.9	129 ± 2.2	140 ± 2.9								
CCc1cc(OC)ccc1-c1ccc(CC(NC(=O)[C@H](CC(=O)O)NC(=O)[C@H](CO)NC(=O)[C@@H](NC(=O)C(C)(Cc2ccccc2F)NC(=O)[C@@H](NC(=O)CNC(=O)C(CCC#N)NC(=O)C(C)(C)NC(=O)[C@@H](N)Cc2c[nH]cn2)[C@@H](C)O)[C@H](C)O)C(=O)NC(CCCc2ccccc2F)C(N)=O)cc1 (single isomer, unassigned) [Seq. ID. 120]					184 ± 2.5	115 ± 1.6	113 ± 3.2	110 ± 2.4					182 ± 5.1	118 ± 2.1	116 ± 2.2	118 ± 2.4				
CCc1cc(OC)ccc1-c1ccc(CC(NC(=O)[C@H](CC(=O)O)NC(=O)[C@H](CO)NC(=O)[C@@H](NC(=O)[C@H](Cc2ccccc2)NC(=O)[C@@H](NC(=O)CNC(=O)C(CCC#N)NC(=O)C(C)(C)NC(=O)[C@@H](N)Cc2c[nH]cn2)[C@@H](C)O)[C@@H](C)O)C(=O)NC(CCCc2ccccc2)C(N)=O)cc1 (single isomer, unassigned) [Seq. ID. 29]					184 ± 2.5	118 ± 3.6	113 ± 4.2	110 ± 2.4					180 ± 1.2	116 ± 3.2	116 ± 3.1	118 ± 1.8				
CCc1cc(OC)ccc1-c1ccc(CC(NC(=O)[C@H](CC(=O)O)NC(=O)[C@H](CO)NC(=O)[C@@H](NC(=O)[C@H](Cc2ccccc2)NC(=O)[C@@H](NC(=O)CNC(=O)[C@H](CCC(N)=O)NC(=O)C(C)(C)NC(=O)[C@@H](N)Cc2c[nH]cn2)[C@@H](C)O)[C@@H](C)O)C(=O)NC(CCCc2cc(C)cc(C)c2)C(N)=O)cc1 (stereo partly drawn) [Seq. ID. 18] (H-H[Aib]QGTFTSD[ξBip(2'-Et-4'-OMe)][ξNva(5-(3,5-Me2-Ph))]-NH2)					185 ± 2.3	115 ± 3.8	113 ± 4.9	109 ± 2.2					183 ± 3.6	118 ± 3.3	116 ± 3.2	117 ± 1.9				
CCc1cc(OC)ccc1-c1ccc(CC(CNC(CCCc2ccccc2)C(N)=O)NC(=O)[C@H](CC(=O)O)NC(=O)[C@H](CO)NC(=O)[C@@H](NC(=O)C(C)(Cc2ccccc2F)NC(=O)[C@@H](NC(=O)CNC(=O)C(CCC#N)NC(=O)C(C)(C)NC(=O)[C@@H](N)Cc2c[nH]cn2)[C@H](C)O)[C@H](C)O)cc1 (single isomer, unassigned) [Seq. ID. 190]					183 ± 2.1	118 ± 3.4	113 ± 4.6	111 ± 2.8									182 ± 2.1	121 ± 2.9	130 ± 3.1	138 ± 2.4
